Source: ChEMBL document CHEMBL3507680, “University of Dundee, Gates Library screen for HepG2 cell viability”

Test: Human HepG2 cell viability assay in 384 well format
Type: toxicity, cell-based
Parameters: dose 125 nL, time 70.5 hour; cytotoxicity at 70.5 h: concentration not given beside the values
Details: HepG2 cells, read-out: Inhibition

| SMILES | cytotoxicity at 70.5 h |
| --- | --- |
| COc1cccc(CNC(=O)CCNS(=O)(=O)c2ccc(C)cc2)c1 | -3.42% |
| Cc1cnc(C(=O)N2CCN(Cc3csc(C)n3)CC2)cn1 | -6.71% |
| CCS(=O)(=O)CCN1CCN(C(C)c2cccnc2)CC1 (centres undefined) | 19.9% |
| O=C(CCCc1ccccn1)N1CCSC2(CCCCC2)C1 | 18.8% |
| Cc1n[nH]c(SCC(=O)NC(c2ccccn2)C(C)C)n1 (centres undefined) | -0.841% |
| O=C(COCC1CC1)N1CCSCC1 | 2.26% |
| Cc1ccc(CNC(=O)CNCC2CCN(CCO)CC2)s1 | -1.79% |
| COc1ncccc1C(=O)N1CCCC1c1nc(-c2ccccc2)n[nH]1 (centres undefined) | -0.047% |
| Cc1cc(C2CCCN2C(=O)CN(C)Cc2ccccc2)no1 (centres undefined) | -5.16% |
| CC(C)(O)CN1CCN(C(=O)COC2CCCC2)CC1 | -2.37% |
| O=C(c1ccncc1F)N1CCCC1c1nc(-c2ccccc2)n[nH]1 (centres undefined) | -3.44% |
| Cc1cncc(C(=O)N2CCOc3nc(C)ccc32)c1 | -7.26% |
| Cc1cnn(C2CN(CC(=O)N(C)Cc3ccc(C)o3)C2)c1 | 39.8% |
| CC(C)NC(=O)CN1CCSC2(CCCCC2)C1 | 18.3% |
| CC(C)(C)OC(=O)N1CC(CC(=O)NCc2ccsc2)C1 | 7.8% |
| Cc1cc(CNC(=O)CN2CCN(C(=O)OC(C)(C)C)CC2)ccc1F | 13.3% |
| CC(=O)N(C)c1nc(CN2CCN(Cc3nccn3C)CC2)cs1 | 10.2% |
| Cc1cn2nc(N3CCCC3C(=O)N3CCSCC3)sc2n1 (centres undefined) | -8.52% |
| Cc1cc(CNC(=O)Nc2cc(F)cc(N3CCCC3)c2)no1 | -13.7% |
| O=C(Cc1ccccc1Cl)Nc1ccn(CCN2CCOCC2)n1 | -12.9% |
| CSc1ccsc1C(=O)NS(=O)(=O)c1cccc(C#N)c1 | -13.1% |
| O=C1CCc2cc(S(=O)(=O)NC(=O)c3ccc4c(c3)OCO4)ccc2N1 | -15.2% |
| Cn1c(CN2CCN(CC3CCCO3)CC2)nc2ccccc21 (centres undefined) | -9.16% |
| CCc1cc(CNC(=O)NCc2ccc(N3CCCCC3)cc2)on1 | -7.79% |

| SMILES | cytotoxicity at 70.5 h |
| --- | --- |
| Cc1cnn(C2CN(CC(=O)N(C)Cc3cccs3)C2)c1 | -11.5% |
| Clc1ccc2cccnc2c1CN1CCn2c(nnc2C2CC2)C1 | -13.3% |
| Nc1nc(CN2CCN(c3nccs3)CC2)cs1 | -5.16% |
| Fc1cccc(Cl)c1CN1CCn2c(nnc2C2CC2)C1 | -10.3% |
| CC(=O)N1CCCc2ccc(S(=O)(=O)N3CCCCC3C)cc21 (centres undefined) | -3.92% |
| CCOc1cccc(CCNC(=O)Cc2ccn[nH]2)n1 | -7.14% |
| COCc1ccccc1C(=O)NS(=O)(=O)c1ccc2c(c1)CCC(=O)N2 | -9.29% |
| Cc1nnc(N2CCCC2)c(C(N)=O)c1C | -6.33% |
| CC(C)(C)OC(=O)N1CC(CC(=O)NCc2ccnc(C3CC3)c2)C1 | -8.99% |
| Cc1nnc2n1CCN(Cc1c(Cl)ccc3cccnc13)C2 | 26.2% |
| CN(Cc1ccc([S+](C)[O-])cc1)c1ccc(C(F)(F)F)cn1 (centres undefined) | -4.29% |
| CN(C(=O)c1cccn1C)C1CCC(NC(=O)OC(C)(C)C)CC1 (centres undefined) | -9.69% |
| O=C(COCc1ccccc1)Nc1ccccn1 | 0.318% |
| Cc1ccc2c(c1)C(NCc1ncnn1C)CC2 (centres undefined) | -5.24% |
| Cn1cnnc1-c1cncc(NCc2cccc3c2OC(C)(C)C3)c1 | 8.22% |
| CCCC(C)(C)NC(=O)c1cnc(C)s1 | 2.45% |
| CCc1ncc(C(=O)NC(C)(C)CC)s1 | -1.24% |
| N#Cc1ccccc1CNC(C(=O)N1CCOCC1)c1ccccc1 (centres undefined) | -1.56% |
| Cc1n[nH]cc1CNC(C(=O)N1CCCCC1)c1ccccc1 (centres undefined) | 3.13% |
| O=C(C(NCc1cccc(F)c1F)c1ccccc1)N1CCOCC1 (centres undefined) | -1.89% |
| N#Cc1ccc(N2CCN(c3ncccn3)CC2)c(C(F)(F)F)c1 | 8.58% |
| COCCSc1ccc(C(C)NC(=O)Nc2cccnc2)cc1 (centres undefined) | -4.37% |
| c1cnn(CC2CCCN2c2ncnc3c2CCC3)c1 (centres undefined) | 4.07% |
| COc1ccc(S(=O)(=O)N2CCn3nc(C)nc3C2)cc1C | -5.13% |

| SMILES | cytotoxicity at 70.5 h |
| --- | --- |
| COc1cccc(-c2csc(Cn3ccc(=O)[nH]c3=O)n2)c1 | 19.5% |
| COc1ccc(C)cc1-c1csc(Cn2ccc(=O)[nH]c2=O)n1 | 2.92% |
| CCn1c(C)cc(-c2csc(Cn3ccc(=O)[nH]c3=O)n2)c1C | -4.42% |
| N#Cc1c[nH]c(C(=O)N(Cc2ccc(O)cc2)CC2CC2)c1 | -2.25% |
| NC(=O)c1ccc(C(=O)N(Cc2ccc(O)cc2)CC2CC2)cc1 | 6.44% |
| O=c1ccn(Cc2nc(-c3ccccc3F)cs2)c(=O)[nH]1 | 0.45% |
| NC(=O)NC(=O)CCn1ccc(-c2ccc(F)cc2)n1 | -1.22% |
| CC(C)c1cccc(NC(=O)N2CC(N(C)C)C2)c1 | -0.462% |
| NC(=O)NC(=O)CCn1ccc(-c2ccccc2)n1 | 16% |
| CN(C)S(=O)(=O)N1CCC(OCCCc2ccccc2)C1 (centres undefined) | -0.922% |
| CCS(=O)(=O)N1CCC(OCCCc2ccccc2)C1 (centres undefined) | -3.57% |
| Cc1cnn(CC2CCCN2c2ncnc3c2CCC3)c1 (centres undefined) | 13.3% |
| O=C(C1CCN(c2ccnc3ccc(Br)cc23)CC1)N1CCOCC1 | 8.35% |
| Cc1csc(N2CCCN(C(=O)c3ccsc3)CC2)n1 | -12% |
| CCn1cnnc1CNC(=O)C1CCCN(Cc2cccc(F)c2)C1 (centres undefined) | -14.4% |
| CC(C)CNC(=O)c1ccc(NC(=O)NC2CC2)cc1Cl | -12.8% |
| Cn1ccnc1CCNC(=O)C1CCCN(Cc2cccc(F)c2)C1 (centres undefined) | -7.53% |
| CC(C)C(C)(C#N)NC(=O)Cn1nnc(-c2cc3ccccc3o2)n1 (centres undefined) | 18.2% |
| O=C(NS(=O)(=O)Cc1ccon1)c1ccsc1 | -3.39% |
| Cc1nsc(N2CCN(C(=O)Nc3ccc4[nH]ccc4c3)CC2)n1 | 1.81% |
| CN1CCOC(C(=O)Nc2ccc3[nH]nnc3c2)C1 (centres undefined) | -3.75% |
| CC(NC(=O)N1CCSC(C)(C)C1)c1noc(-c2ccccc2)n1 (centres undefined) | -0.307% |
| COc1ccccc1CC(=O)NCc1ccnc(NC2CC2)c1 | -0.149% |
| CCSc1cncc(NCc2ccc(N3CCNC(=O)C3)cc2)n1 | 3.68% |

| SMILES | cytotoxicity at 70.5 h |
| --- | --- |
| CCOCCC(=O)NCc1ccnc(NC2CC2)c1 | -3.85% |
| CCC(C)(C)NC(=O)c1ccc(-c2ccco2)[nH]c1=O | 0.821% |
| CN1CCOC(C(=O)Nc2ccc3c(c2)nc(C2CC2)n3C)C1 (centres undefined) | -3.17% |
| Cc1ccc(C)c(CN(C)Cc2nnc3ccccn23)c1 | 14.1% |
| Cc1nsc(N2CCCN(C(=O)c3ccc4[nH]ccc4c3)CC2)n1 | -3.86% |
| CC(Cn1cccn1)NS(=O)(=O)Cc1ccc(F)cc1 (centres undefined) | 5.43% |
| Cc1ccc(O)c(C(=O)N2CCC(CN3CCCCCC3)CC2)c1 | -6.42% |
| CC(C)C(C)N1Cc2cccc(NCC(=O)N(C)C)c2C1 (centres undefined) | -8.25% |
| Cn1ccc(CN2CCCN(c3nccs3)CC2)cc1=O | -1.81% |
| Cc1csc(N2CCCN(Cc3ccn(C)c(=O)c3)CC2)n1 | -3.93% |
| COC(=O)c1cccc(S(=O)(=O)NC(=O)c2cccc(OC)c2OC)c1 | -6.86% |
| Cc1occc1C(=O)Nc1cc(N2CCNC2=O)ccc1Cl | 6.66% |
| Cc1nc(CNC(=O)C(C)(C)c2ccc(F)cc2)no1 | 0.937% |
| COc1ccc(-c2nc(CC(=O)N(C)CCC#N)cs2)cc1OC | 5.07% |
| CCC(=O)N1CCCN(C(=O)c2cc(C)cc(Br)c2O)CC1 | -1.86% |
| CC(=O)NC1CCN(c2ccc(C#N)cc2C(F)(F)F)CC1 | -1.95% |
| COCC(NC(=O)NCc1sc(C)nc1C)c1ccco1 (centres undefined) | 7.86% |
| Cc1noc2ncc(S(=O)(=O)Nc3cc(CC(C)(C)C)[nH]n3)cc12 | 3.8% |
| CC(C)N1Cc2cccc(NCC(=O)N(C)C)c2C1 | -2.57% |
| CCC[C@@H](NC(N)=O)C(=O)N1CCc2c(Cl)cccc2C1 | -2.76% |
| CC(C)N1Cc2cccc(NCC(=O)N(C)C3CCCCC3)c2C1 | -0.0699% |
| CC(C)CCC(C)NC(=O)Nc1ccccn1 (centres undefined) | -2.67% |
| CSc1ccc(OC(C)C(=O)Nc2cc(C)n[nH]2)cc1 (centres undefined) | -1.12% |
| OC(CN1CCCCc2ccccc21)Cn1cccn1 (centres undefined) | 1.14% |

| SMILES | cytotoxicity at 70.5 h |
| --- | --- |
| CN1CCOC(C(=O)N2CCC3(CCCCC3)C2)C1 (centres undefined) | -5.38% |
| CN1CCOC(C(=O)N2CCOC3(CCCC3)C2)C1 (centres undefined) | -1.85% |
| COCCN(C(=O)c1cc(-c2ccc(C)s2)[nH]n1)C1CC1 | -3.98% |
| NC(=O)CN(C(=O)Cc1ccc(C(F)(F)F)cc1)C1CCCC1 | -7.24% |
| CC(C)C(C(=O)NCc1ccccc1-n1cccn1)N(C)C (centres undefined) | -7.79% |
| N#Cc1c(Cl)nsc1NCC1(c2ccccc2)CCC1 | 17.1% |
| NC(=O)CN(C(=O)Cc1cccc(C(F)(F)F)c1)C1CCCC1 | -2.84% |
| CS(=O)(=O)c1nnc(NC(=O)CCc2cccc(Cl)c2)[nH]1 | -7.49% |
| COc1ccc(CN(C)c2ncc(S(N)(=O)=O)s2)c(OC)c1 | -4.13% |
| CSC(CNS(C)(=O)=O)c1cccc(Cl)c1 (centres undefined) | 24% |
| CSC(CNS(N)(=O)=O)c1cccc(Cl)c1 (centres undefined) | -1.44% |
| CN(CCn1cccn1)S(=O)(=O)c1cccc(Cl)c1C#N | -7.08% |
| CCCn1nc(-c2nc(COC)no2)ccc1=O | -6.41% |
| CC(C)(CNc1ccc2ccc(F)cc2n1)NS(C)(=O)=O | -7.19% |
| Cc1noc(COCC(=O)Nc2cc(C)c(Br)cn2)n1 | 4.04% |
| O=S(=O)(Cc1cccc2cccnc12)NC(CO)c1ccco1 (centres undefined) | -9.35% |
| O=S(=O)(Cc1ccccc1F)NC(CO)c1ccco1 (centres undefined) | 18.8% |
| COc1ncc(NCc2csc(-c3ccco3)n2)cc1C(N)=O | -11% |
| COCC1CN(C(=O)Nc2cc(Cl)ccc2F)CCO1 (centres undefined) | -8.58% |
| Cc1cccc(OCc2nnc(SCC3CCCN(C)C3)o2)c1 (centres undefined) | -5.28% |
| CCC(C(=O)N1CCCN(CCN(C)C)CC1)N1CCCC1=O (centres undefined) | 0.544% |
| Cc1n[nH]cc1CNC(C)c1cccc(N2CCCC2=O)c1 (centres undefined) | 14.3% |
| CNCc1nc(-c2ccc3c(c2)OCO3)c[nH]1 | -13.6% |
